Experimental findings from US11285140B2, “Piperidin-4-yl azetidine derivatives as JAK1 inhibitors” (Incyte Corporation, priority 2010, dated 2022) are described below.

Holding throughout (type): biochemical
In experiment [1] the target is human JAK1 (a.a. 837-1142). As to the kind of experiment: In vitro JAK kinase assay (HTRF, phosphorylation of biotinylated peptide), JAK1. The note with it: measured at 1 mM ATP; JAK2 IC50 / JAK1 IC50. How it is done: (§1) Compounds herein were tested for inhibitory activity of JAK targets according to the following in vitro assay described in Park et al., Analytical Biochemistry 1999, 269, 94-104. The catalytic domains of human JAK1 (a.a. 837-1142), Jak2 (a.a. 828-1132) and Jak3 (a.a. 781-1124) with an N-terminal His tag were expressed using baculovirus in insect cells and purified. The catalytic activity of JAK1, JAK2 or JAK3 was assayed by measuring the phosphorylation of a biotinylated peptide. The phosphorylated peptide was detected by homogenous time resolved fluorescence (HTRF). […] Reactions were carried out at room temperature for 1 hr and then stopped with 20 μL 45 mM EDTA, 300 nM SA-APC, 6 nM Eu-Py20 in assay buffer (Perkin Elmer, Boston, Mass.). Binding to the Europium labeled antibody took place for 40 minutes and HTRF signal was measured on a Fusion plate reader (Perkin Elmer, Boston, Mass.).

Experiment [2] addresses human JAK1 (a.a. 837-1142) (Homo sapiens, UniProt P23458). Described as above. Conditions: measured at 1 mM ATP. How it is done: as §1
Experiment [3] has as its target human Jak2 (a.a. 828-1132) (Homo sapiens (Human), UniProt O60674). As to the kind of experiment: In vitro JAK kinase assay (HTRF, phosphorylation of biotinylated peptide), JAK2. Conditions: measured at 1 mM ATP. As for the experimental part:
as §1

A value given as a limit tells only on which side of the number the result lay.

Chain of human Jak2 (a.a. 828-1132) (O60674 828-1132): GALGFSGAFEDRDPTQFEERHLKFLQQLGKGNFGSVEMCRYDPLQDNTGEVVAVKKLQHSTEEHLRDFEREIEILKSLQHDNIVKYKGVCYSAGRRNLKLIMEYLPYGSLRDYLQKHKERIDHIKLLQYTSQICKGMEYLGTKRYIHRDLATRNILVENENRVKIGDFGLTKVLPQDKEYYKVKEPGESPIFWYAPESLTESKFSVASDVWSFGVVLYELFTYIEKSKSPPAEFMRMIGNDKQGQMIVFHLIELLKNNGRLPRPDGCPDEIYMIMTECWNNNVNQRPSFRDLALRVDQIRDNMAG

Turning to “4-{3-(cyanomethyl)-3-[3-(7H-pyrrolo[2,3- d]pyrimidin-4-yl)-1H-pyrrol-1- yl]azetidin-1-yl}-N-[4- (trifluoromethyl)pyridin-3-yl]piperidine- 1-carboxamide [Example 165]”, in experiment [1], the “IC50 Ratio JAK2/JAK1” value came out at 10.4. Besides, the results for the IC50 in experiment [2] and in experiment [3] were 5 to 20 nM and 50 to 100 nM, respectively.

On to “4-{3-(cyanomethyl)-3-[4-(7H-pyrrolo[2,3- d]pyrimidin-4-yl)-1H-pyrazol-1- yl]azetidin-1-yl}-N-(2,5-difluorophenyl) piperidine-1-carboxamide [Example 174]”, for which, in experiment [1], the “IC50 Ratio JAK2/JAK1” value is listed as 7.1. The values for the IC50 in experiment [2] and in experiment [3] were ≤ 5 nM and ≤ 10 nM, respectively.

“4-{3-(cyanomethyl)-3-[4-(7H-pyrrolo[2,3- d]pyrimidin-4-yl)-1H-pyrazol-1- yl]azetidin-1-yl}-N-(2-methylphenyl) piperidine-1-carboxamide [Example 185]”: the “IC50 Ratio JAK2/JAK1” value in experiment [1] came to 9.5. In addition, the IC50 was ≤ 5 nM in experiment [2] and 10 to 50 nM in experiment [3].

Take “4-{3-(cyanomethyl)-3-[4-(7H-pyrrolo[2,3- d]pyrimidin-4-yl)-1H-pyrazol-1- yl]azetidin-1-yl}-N-(3,5-difluorophenyl) piperidine-1-carboxamide [Example 175]”: in experiment [1], the “IC50 Ratio JAK2/JAK1” value stood at 3.6. Also, the 50% inhibitory concentration (IC50) in experiment [2] is ≤ 5 nM; in experiment [3], ≤ 10 nM.

Regarding `N#CCC1(n2cc(-c3ncnc4[nH]ccc34)cn2)CN(C2CCN(C(=O)C3Cc4ccccc4C3)CC2)C1` [Example 99, {1-[1-(2,3-dihydro-1H-inden-2-ylcarbonyl)piperidin-4-yl]-3-[4-(7H-pyrrolo[2,3-d]pyrimidin-4-yl)-1H-pyrazol-1-yl]azetidin-3-yl}acetonitrile], in experiment [1], the “IC50 Ratio JAK2/JAK1” value was determined as 5.6. Moreover, the IC50 in experiment [2] lay in the range of 5 to 20 nM; in experiment [3] it was 10 to 50 nM.

As to `N#CCC1(n2cc(-c3ncnc4[nH]ccc34)cn2)CN(C2CCN(Cc3ccc(F)cc3F)CC2)C1` [Example 217, {1-[1-(2,4-difluorobenzyl)piperidin-4-yl]-3-[4-(7H-pyrrolo[2,3-d]pyrimidin-4-yl)-1H-pyrazol-1-yl]azetidin-3-yl}acetonitrile], the “IC50 Ratio JAK2/JAK1” value in experiment [1] is listed as 5.8. Further, the IC50 in experiment [2] is 5 to 20 nM; in experiment [3] it was 10 to 50 nM.

With `CC(C)(C)C(=O)Nc1cc(CN2CCC(N3CC(CC#N)(n4cc(-c5ncnc6[nH]ccc56)cn4)C3)CC2)ccn1` [Example 235, N-{4-[(4-{3-(cyanomethyl)-3-[4-(7H-pyrrolo[2,3-d]pyrimidin-4-yl)-1H-pyrazol-1-yl]azetidin-1-yl}piperidin-1-yl)methyl]pyridin-2-yl}-2,2-dimethylpropanamide], the “IC50 Ratio JAK2/JAK1” value in experiment [1] was determined as 2.5. For the same compound, the IC50 in experiment [2] was 5 to 20 nM; in experiment [3], 10 to 50 nM.
